This is an account of results in US5712417A, “Inhibitors of retroviral proteases” (Abbott Laboratories, priority 1989, dated 1998).

Where a name gives a salt, the structure may show the parent alone.

The first assay concerns the target T1, HIV protease (Human immunodeficiency virus type 1 group M subtype B, UniProt P04585).
T1 construct: HIV protease consists of 99 amino acids and is evidently split off by itself from the pol polyprotein
The assay is described as follows: Inhibition of HIV protease (cleavage of H-Ser-Phe-Asn-Phe-Opr-Gln-Ile-OH, HPLC).
Conditions: not given
Format: biochemical. From the text: The compounds of the formula (I) according to the invention have enzyme-inhibiting properties. In particular, they inhibit the action of retroviral aspartyl proteases, such as that of HIV protease. Their enzyme-inhibitory action, which is in the milli- to subnanomolar range, can be determined as follows.
The heptapeptide: H-Ser-Phe-Asn-Phe-Pro-Gln-Ile-OH (P. L. Darke et al., Biophys. Res. Commun. 156 (1988) 297-303), inter alia, has hitherto been used as the substrate of HIV protease. HIV protease cleaves the substrate here between the second Phe and Pro.
General instructions for testing inhibitors of HIV proteases: a) Preparation of the substrate solution:
2 mg of H-Ser-Phe-Asn-Phe-Opr-Gln-Ile-OH (H-Opr-OH=5-oxaproline) are dissolved in 1 ml of MGTE15 buffer (use of ultrasound if necessary) and the solution is then filtered over a sterile filter (0.45 μm). […]
b) Preparation of the inhibitor solution:
2.5 times the desired molarity of the inhibitor per ml of solution are weighed out and dissolved in DMSO (10% of the final volume). The solution is diluted to the final volume with MGTE15 buffer and filtered over a sterile filter (0.45 μm). […]
c) Preparation of the protease solution:
5 μl of the HIV protease solution are diluted with MGTE25 buffer as required.
10 μl portions of the substrate solution are pipetted into test-tubes (16×100) with a screw cap. For the blank experiment, 10 μl of MGTE15 buffer containing 10% of DMSO are pipetted into a test-tube. 10 μl portions of the inhibitor solutions are added to the other test-tubes. The mixtures are incubated at 37° C. for 5-10 minutes and 5 μl of the protease solution are then added to each sample, After reaction at 35° C. for 2 hours, 10 or 20 μl (depending on the sensitivity of the HPLC apparatus) of each sample are then pipetted off, introduced into microvials and diluted with 120 μl of the HPLC mobile phase. […]
e) Conditions for the HPLC analysis:
20% (weight/weight) of aceto-
Column: Merck ®LICHROSORB RP18 (5 μm) 250×4
Column temperature: 42° C.
Detector parameters: 215 nm, 0.08 AUF, 18.2° C.
Analysis time: 11 minutes
Retention time of the substrate: 8.1 minutes
Retention time of the N-terminal tetrapeptide: 3.9 minutes
20 mM morpholinoethanesulfonic acid (MES)
15% (weight/volume) of glycerol
0.1% (volume/volume) of Triton ×100
1 mM phenylmethylsulfonyl fluoride (PMSF)
25% (weight/volume) of glycerol, additionally 1 mM dithiothreitol (DTT) The MES, EDTA, NaCl, DTT and PMSF are weighed into a conical flask and dissolved in a little water and the pH is brought to 6. The corresponding amount of glycerol is weighed into a measuring flask and ®Triton ×100 is pipetted in. The aqueous solution is transferred to the measuring flask and made up to the mark with water.
A 0.1M solution is prepared from orthophosphoric acid (FLUKA extra pure analytical grade). This solution is brought to exactly pH 2.5 with triethylamine (FLUKA extra pure analytical grade). The weight of the solution is determined and the corresponding amount of acetonitrile (fume cupboard) is weighed in. The mixture is mixed thoroughly and degassed with helium 5.0 for about 5 minutes.
Under the conditions chosen here, heptapeptides are separated from the N-terminal tetrapeptide formed during enzymatic cleavage. The percentage content of the tetrapeptide peak in respect of the sum of tetrapeptide+heptapeptide corresponds to the cleaving rate. The following IC50 values indicate the inhibitor concentration at which the cleavage rate is halved.
`CC(C)[C@H](NC(=O)[C@H](Cc1ccccc1)NC(=O)[C@H](COC(C)(C)C)NC(=O)OC(C)(C)C)C(=O)N[C@@H](Cc1ccccc1)[C@@H](O)[C@H](O)[C@H](Cc1ccccc1)NC(=O)[C@@H](NC(=O)[C@H](Cc1ccccc1)NC(=O)[C@H](COC(C)(C)C)NC(=O)OC(C)(C)C)C(C)C` [Example 15, N,N'-bis-(tert.-Butoxycarbonyl-L-(O-tert.-butylseryl)-L-phenylalanyl-L-valyl)-2S,5S-diamino-1,6-diphenyl-hexane-3R,4R-diol] showed an IC50 of 400 nM.

The same assay, now with this note: inhibitor concentration at which the cleavage rate is halved; Ex. 99; read-out: IC50.
`CC(C)[C@H](NC(=O)[C@@H](CC(=O)N1CCC(N)CC1)Cc1ccccc1)C(=O)N[C@@H](Cc1ccccc1)[C@@H](O)[C@H](O)[C@H](Cc1ccccc1)NC(=O)[C@@H](NC(=O)[C@@H](CC(=O)N1CCC(N)CC1)Cc1ccccc1)C(C)C` [Example 99, N,N'-bis-<3-(4-Amino-1-piperidylcarbonyl-2R-benzyl-propionyl-L-valyl>-2S,5S-diamino-1,6-diphenylhexane-3R,4R-dioldihydrochloride]: the concentration for half-maximal inhibition (IC50) is 15 nM.

The same assay, now with this note: inhibitor concentration at which the cleavage rate is halved; pH 6, 2 hours; read-out: IC50.
For `CC(C)[C@H](N)C(=O)N[C@@H](Cc1ccccc1)[C@H](O)[C@@H](O)[C@H](Cc1ccccc1)NC(=O)[C@@H](N)C(C)C` [Example 131, N,N'-bis-<L-Valyl>-2S,5S-diamino-1,6-diphenylhexane-3S,4S-diol dihydrochloride], the half-maximal inhibitory concentration (IC50) was 40000 nM.

Turning to `CC(C)(C)OC(=O)N[C@H](CNC[C@H](Cc1ccccc1)NC(=O)OC(C)(C)C)Cc1ccccc1` [Example 25, Bis-(N-tert.-butoxycarbonyl-2S-amino-3-phenylpropyl)-amine hydrochloride], the IC50 stood at 18000 nM.

Consider `CC(C)[C@H](NC(=O)[C@@H](CC(=O)OC(C)(C)C)Cc1ccccc1)C(=O)N[C@@H](Cc1ccccc1)[C@@H](O)[C@H](O)[C@H](Cc1ccccc1)NC(=O)[C@@H](NC(=O)[C@@H](CC(=O)OC(C)(C)C)Cc1ccccc1)C(C)C` [Example 102, N,N'-bis-<(2R-Benzyl-3-tert.-butoxycarbonyl)-propionyl-L-valyl>-2S,5S-diamino-1,6-diphenylhexane-3R,4R-diol], for which the IC50 came to 38 nM.

With `CC(C)[C@H](NC(=O)C(CNC(=O)OC(C)(C)C)Cc1ccccc1)C(=O)N[C@@H](Cc1ccccc1)[C@@H](O)[C@H](O)[C@H](Cc1ccccc1)NC(=O)[C@@H](NC(=O)C(CNC(=O)OC(C)(C)C)Cc1ccccc1)C(C)C` (single isomer, unassigned) [Example 105, N,N'-bis-<(2-Benzyl-3-tert.-butoxycarbonylamino)-propionyl-L-valyl>-2S,5S-diamino-1,6-diphenylhexane-3R,4R-diol], the IC50 came out at 19 nM.

As for `CC(C)[C@H](NC(=O)[C@H](CCC(=O)O)NC(=O)OC(C)(C)C)C(=O)N[C@@H](Cc1ccccc1)[C@H](O)[C@@H](O)[C@H](Cc1ccccc1)NC(=O)[C@@H](NC(=O)[C@H](CCC(=O)O)NC(=O)OC(C)(C)C)C(C)C` [Example 83, N,N,-bis-<tert.-Butoxycarbonyl-L-glutamyl-L-valyl>-2S,5S-diamino-1,6-diphenylhexane-3S,4S-diol], the IC50 stood at 10 nM.

On to `CC(C)[C@H](NC(=O)[C@@H](Cc1ccccc1)NC(=O)OC(C)(C)C)C(=O)N[C@@H](Cc1ccccc1)[C@H](O)[C@@H](O)[C@H](Cc1ccccc1)NC(=O)[C@@H](NC(=O)[C@@H](Cc1ccccc1)NC(=O)OC(C)(C)C)C(C)C` [Example 63, N,N'-bis-<tert.-Butoxycarbonyl-D-phenylalanyl-L-valyl>-2S,5S-diamino-1,6-diphenylhexane-3S,4S-diol], for which the IC50 came to 6.5 nM.

With `CC(C)[C@H](NC(=O)[C@H](Cc1ccccc1)NC[C@@]1(O)OC[C@@H](O)[C@@H](O)[C@@H]1O)C(=O)N[C@@H](Cc1ccccc1)[C@H](O)[C@@H](O)[C@H](Cc1ccccc1)NC(=O)[C@@H](NC(=O)[C@H](Cc1ccccc1)NC[C@@]1(O)OC[C@@H](O)[C@@H](O)[C@@H]1O)C(C)C` [Example 109, N,N'-bis-<N-(β-D-1-Deoxyfructos-1-yl-L-phenylalanyl-L-valyl>-2S,5S-diamino-1,6-diphenylhexane-3S,4S-diol diacetate], the IC50 came out at 5 nM.

As to `CC(C)[C@H](NC(=O)[C@@H](N)Cc1ccc(O)cc1)C(=O)N[C@@H](Cc1ccccc1)[C@H](O)[C@@H](O)[C@H](Cc1ccccc1)NC(=O)[C@@H](NC(=O)[C@@H](N)Cc1ccc(O)cc1)C(C)C` [Example 78, N,N'-bis-<L-Tyrosyl-L-valyl>-2S,5S-diamino-1,6-diphenyl-hexane-3S,4S-dioldihydrochloride], the half-maximal inhibitory concentration (IC50) was found to be 1.8 nM.

`CC(C)[C@H](NC(=O)[C@@H](N)CCC(=O)O)C(=O)N[C@@H](Cc1ccccc1)[C@H](O)[C@@H](O)[C@H](Cc1ccccc1)NC(=O)[C@@H](NC(=O)[C@@H](N)CCC(=O)O)C(C)C` [Example 82, N,N,-bis-<L-Glutamyl-L-valyl>-2S,5S-diamino-1,6-diphenyl-hexane-3S,4S-dioldihydrochloride]: the IC50 worked out at 9 nM.

As for `CC(C)[C@H](NC(=O)[C@@H](Cc1cccs1)CS(=O)(=O)C(C)(C)C)C(=O)N[C@@H](Cc1ccccc1)[C@@H](O)[C@H](O)[C@H](Cc1ccccc1)NC(=O)[C@@H](NC(=O)[C@@H](Cc1cccs1)CS(=O)(=O)C(C)(C)C)C(C)C` [Example 54, N,N,-bis-<(2R-(1,1-Dimethylethylsulfonylmethyl)-3-(2-thienyl)-propionyl)-L-valyl>-2S,5S-diamino-1,6-diphenyl-hexane-3R,4R-diol], the IC50 was 260 nM.

As to `COc1ccc(C[C@H](N)C(=O)N[C@H](C(=O)N[C@@H](Cc2ccccc2)[C@H](O)[C@@H](O)[C@H](Cc2ccccc2)NC(=O)[C@@H](NC(=O)[C@@H](N)Cc2ccc(OC)cc2)C(C)C)C(C)C)cc1` [Example 76, N,N'-bis-<(O-Methyltyrosyl-L-valyl>-2S,5S-diamino-1,6-diphenylhexane-3S,4S-dioldihydrochloride], the half-maximal inhibitory concentration (IC50) worked out at 0.29 nM.

Take `CC(C)[C@H](NC(=O)C(Cc1ccccc1)CS(=O)(=O)Cc1ccc(Cl)cc1)C(=O)N[C@@H](Cc1ccccc1)[C@@H](O)[C@H](O)[C@H](Cc1ccccc1)NC(=O)[C@@H](NC(=O)C(Cc1ccccc1)CS(=O)(=O)Cc1ccc(Cl)cc1)C(C)C` (stereo partly drawn) [Example 123, N,N'-bis-<(2-(p-Chlorobenzylsulfonylmethyl)-3-phenyl-propionyl)-L-valyl>-2S,5S-diamino-1,6-diphenylhexane-3R,4R-diol]: the IC50 stood at 32 nM.

Consider `CC(C)[C@H](NC(=O)CN)C(=O)N[C@@H](Cc1ccccc1)[C@@H](O)[C@H](O)[C@H](Cc1ccccc1)NC(=O)[C@@H](NC(=O)CN)C(C)C` [Example 85, N,N'-bis-<Glycyl-L-valyl>-2S,5S-diamino-1,6-diphenyl-hexane-3R,4R-dioldihydrochloride], for which the IC50 turned out to be 1.9 nM.

Consider `COc1ccc(C[C@H](NC(=O)OC(C)(C)C)C(=O)N[C@H](C(=O)N[C@@H](Cc2ccccc2)[C@H](O)[C@@H](O)[C@H](Cc2ccccc2)NC(=O)[C@@H](NC(=O)[C@H](Cc2ccc(OC)cc2)NC(=O)OC(C)(C)C)C(C)C)C(C)C)cc1` [Example 77, N,N'-bis-<tert.-Butoxycarbonyl-(O-methyltyrosyl)-L-valyl>-2S,5S-diamino-1,6-diphenylhexane-3S,4S-diol], for which the IC50 came to 9.2 nM.

The same assay, now with this note: read-out: IC50.
Turning to `CC(C)(C)OC(=O)N[C@@H](Cc1ccccc1)[C@H](O)[C@H](O)[C@H](Cc1ccccc1)NC(=O)OC(C)(C)C` [Example 5, N,N'-bis-(tert.-Butoxycarbonyl)-2S,5S-diamino-1,6-diphenylhexane-3R,4S-diol], the half-inhibitory concentration (IC50) is 3600 nM.

Broadly, the IC50 is the concentration at which inhibition is half-maximal.
